Tested on: Wheat seeds
Experiment: Germination test on wheat seeds with pesticide (tebuconazol) treatment
Assay type: in vivo
Conditions: Guar 1/seed 0.2%, tebuconazol/seed 0.1%, 25 ml water each 2 days, 25° C.
Excerpt: Germination rate means the number of plant emerging out of soil in comparison with the number of all introduced in the soil. Height is the medium height of all plants in a set. Spraying an aqueous solution comprising 0.4 wt % of Guar 1 and […] additives on the surface of Wheat seeds, to obtain a weight ratio Guar 1/seed of 0.2% and tebuconazol/seed of 0.1%. 900 g of soil in each pot are used; this soil coming from […] province and belongs to […] soil. The germination test is carried out under watering conditions of 25 ml water each 2 days, with a temperature is 25° C.

CC(C)(C)C(O)(CCc1ccc(Cl)cc1)Cn1cncn1 (centres unmarked) [tebucanozol, tebuconazol]
Germination rate (36 days): 47% | Height (36 days): 4.6 cm

Reference: US9795134B2, “Growth enhancement of plant” (RHODIA OPERATIONS, priority 2012, dated 2017)
